Several values for one entry are separate records, joined by “and”; a condition that tells them apart may be missing. Equal entries are not always repeated.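 Cultured in 96-well plates, cells were exposed to test compound for 48 hours across five concentrations. GI50 marks 50% less growth. At the TGI there is no net growth.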 *1 amine or outer side, *2 acyl side, *3 side chain or, on linkers, in order; H or OH if unused. Where a SMILES comes first, the peptide text is derived from it. [ ]: non-standard residue; d: D form. X56 = CC[C@H](C)[C@H](OC(=O)[C@@H](C)[C@@H](CC)N[*:1])C(=O)[*:2]; X32 = C[C@H](N[*:1])C(=O)C(C)(C)C(=O)[*:2]; NMeY = CN[C@@H](Cc1ccc(O)cc1)C(=O)O; NMeL = CN[C@@H](CC(C)C)C(=O)O; NMeV = CN[C@H](C(=O)O)C(C)C

Some test systems named below: SK-OV-3 ovarian; EKVX NSCLC; OVCAR-8 ovarian; OVCAR-4 ovarian; MOLT-4 leukemia; SK-MEL-2 melanoma; A549 NSCLC; M14 melanoma; NCI-H522 lung.
Assay in all cases: NCI tumour cell line growth inhibition, 48 h

Consider `O=C(NCc1ccncc1)C1COc2cc(-c3cc(=O)c4ccccc4o3)ccc2O1` (stereo not given), for which the TGI in the experiment on SK-OV-3 ovarian, in the experiment on EKVX NSCLC, in the experiment on OVCAR-8 ovarian, with OVCAR-4 ovarian, in the experiment with MOLT-4 leukemia and with SK-MEL-2 melanoma was over 100 µM in each case. Also, the TGI in the experiment with A549 NSCLC, in the experiment on M14 melanoma and in the experiment on NCI-H522 lung was over 100 µM in each case.
As for `CC(C)CN(CC(C)C)C(=O)C1CCCC[C@@H]1C(=O)O` (stereo not given in full), the TGI in the experiment with SK-OV-3 ovarian, in the experiment on EKVX NSCLC, with OVCAR-8 ovarian, in the experiment with OVCAR-4 ovarian, with MOLT-4 leukemia and with SK-MEL-2 melanoma was over 100 µM throughout. Further, the TGI in the experiment with A549 NSCLC, in the experiment with M14 melanoma and in the experiment on NCI-H522 lung was over 100 µM each time.
`O=c1c2cccnc2ncn1CCN1CCCC1`: the TGI in the experiment with SK-OV-3 ovarian, with EKVX NSCLC, in the experiment with OVCAR-8 ovarian, in the experiment with OVCAR-4 ovarian, with MOLT-4 leukemia and in the experiment on SK-MEL-2 melanoma was over 100 µM each time. The TGI in the experiment on A549 NSCLC, in the experiment on M14 melanoma and in the experiment with NCI-H522 lung was over 100 µM throughout.
In the case of `Cn1cnc([N+](=O)[O-])c1Sc1nnnn1-c1ccccc1`, the TGI is over 100 µM in the experiment with SK-OV-3 ovarian; 29.6 µM in the experiment on EKVX NSCLC; 27.9 µM in the experiment with OVCAR-8 ovarian; 22.2 µM in the experiment on OVCAR-4 ovarian; 6.22 µM with MOLT-4 leukemia; 29.5 µM in the experiment on SK-MEL-2 melanoma. Further, the TGI in the experiment with A549 NSCLC is 62.9 µM; with M14 melanoma, 23.7 µM; in the experiment on NCI-H522 lung, 7.35 µM.
In the case of `CC[C@H](C)[C@@H]1OC(=O)[C@@H](C)[C@@H](CC)NC(=O)[C@H](C)NC(=O)C(C)(C)C(=O)[C@H](C)NC(=O)[C@H](Cc2ccc(OC)cc2)N(C)C(=O)[C@H](C(C)C)N(C)C(=O)CNC(=O)[C@H](CC(C)C)N(C)C(=O)CNC1=O` (cyclo(A[X56]G[NMeL]G[NMeV][NMeY](Me)[X32])), the GI50 with SK-OV-3 ovarian was 0.024 µM; with EKVX NSCLC, 0.0668 µM; in the experiment on OVCAR-8 ovarian it was 0.0335 µM; with MOLT-4 leukemia it was 0.0807 µM; in the experiment on M14 melanoma it was 0.0403 µM. In addition, the TGI in the experiment on EKVX NSCLC is 1.82 µM and 8.44 µM; with OVCAR-8 ovarian, 1.45 µM; with MOLT-4 leukemia, 0.784 µM; with SK-MEL-2 melanoma, 0.438 µM and 2.68 µM; with A549 NSCLC, 3.19 µM and 6.15 µM; in the experiment on M14 melanoma it was 2.02 µM and 0.786 µM.
Regarding `CC/C=C/c1cc2cc[nH]c2c2c1C(C)C[C@@H]2C` (stereo not given in full), the TGI with SK-OV-3 ovarian is over 100 µM; in the experiment with EKVX NSCLC it was over 100 µM; in the experiment with OVCAR-8 ovarian, 66.2 µM; with MOLT-4 leukemia it was 53.3 µM; with A549 NSCLC, over 100 µM; in the experiment on M14 melanoma, 74.9 µM. For the same compound, the TGI in the experiment with NCI-H522 lung was 40.4 µM.
Turning to `C=CCn1cc(C(=O)NC(=O)NCCCCCOC(=O)CCCCCCCCCCC(=O)OCCCCCNC(=O)NC(=O)c2cn(CC=C)c(=O)n(C)c2=O)c(=O)n(C)c1=O`, the TGI in the experiment on SK-OV-3 ovarian, in the experiment with EKVX NSCLC, in the experiment on OVCAR-8 ovarian, with MOLT-4 leukemia, in the experiment with SK-MEL-2 melanoma and in the experiment with A549 NSCLC was over 100 µM in each case. In addition, the TGI in the experiment on M14 melanoma and in the experiment with NCI-H522 lung was over 100 µM in each case.
As to `CC1(O)CCC2(C#N)CCC1C2O` (stereo not given), the TGI with SK-OV-3 ovarian, with EKVX NSCLC, in the experiment with OVCAR-8 ovarian, with OVCAR-4 ovarian, in the experiment on MOLT-4 leukemia and in the experiment with SK-MEL-2 melanoma was over 100 µM in each case. In addition, the TGI in the experiment with A549 NSCLC, in the experiment on M14 melanoma and with NCI-H522 lung was over 100 µM each time.
As to `S=c1nc(N2CCCCC2)ss1`, the TGI in the experiment on SK-OV-3 ovarian is over 100 µM; in the experiment with EKVX NSCLC it was 55.8 µM; with OVCAR-8 ovarian, over 100 µM; in the experiment with OVCAR-4 ovarian, over 100 µM; in the experiment with MOLT-4 leukemia, 33.3 µM; in the experiment with SK-MEL-2 melanoma it was 37.7 µM. The TGI with A549 NSCLC was 83.7 µM; with M14 melanoma, 47.7 µM.
Regarding `C1COCCOCCOCCOCCO1.CC(=O)[CH-]C(C)=O.CC(=O)[CH-]C(C)=O.CC(=O)[CH-]C(C)=O.[V]`, the GI50 in the experiment with SK-OV-3 ovarian was 17.6 µM; with OVCAR-8 ovarian, 30.6 µM; in the experiment with OVCAR-4 ovarian, 0.56 µM; in the experiment with MOLT-4 leukemia it was 20.6 µM; in the experiment with SK-MEL-2 melanoma it was 10.8 µM; in the experiment on A549 NSCLC, 22.7 µM. For the same compound, the GI50 in the experiment with M14 melanoma is 5.59 µM; with NCI-H522 lung, 16.9 µM. The TGI is 33 µM with SK-OV-3 ovarian; 76.3 µM in the experiment with OVCAR-8 ovarian; 3.81 µM in the experiment on OVCAR-4 ovarian; 41.4 µM with MOLT-4 leukemia; 26 µM with SK-MEL-2 melanoma; over 100 µM with A549 NSCLC. Moreover, the TGI is 21 µM with M14 melanoma and 39 µM in the experiment with NCI-H522 lung.
As to `CSc1ncnc2c1CCN2`, the GI50 with SK-OV-3 ovarian, in the experiment on EKVX NSCLC, in the experiment with OVCAR-8 ovarian, in the experiment on SK-MEL-2 melanoma, in the experiment on A549 NSCLC and in the experiment on M14 melanoma was over 100 µM each time. Further, in the experiment on NCI-H522 lung, the GI50 is over 100 µM. The TGI in the experiment with SK-OV-3 ovarian, in the experiment on EKVX NSCLC, with OVCAR-8 ovarian, in the experiment on SK-MEL-2 melanoma, in the experiment with A549 NSCLC and in the experiment with M14 melanoma was over 100 µM in each case.
Regarding `COc1cc(/C=C(\OC(C)=O)c2ccc3c(c2)OCO3)cc(OC)c1OC`, the TGI with SK-OV-3 ovarian stood at 66.8 µM; with EKVX NSCLC, 54.9 µM; with OVCAR-8 ovarian, 33.9 µM; with OVCAR-4 ovarian, 51.8 µM; in the experiment on MOLT-4 leukemia, 43.4 µM; in the experiment with SK-MEL-2 melanoma it was 57.9 µM. Also, the TGI in the experiment with A549 NSCLC is over 100 µM; with M14 melanoma, 39.4 µM; with NCI-H522 lung, 50.2 µM.
Consider `COC(=O)C1C(OCc2ccccc2)C2CCC1(OC)C=C2C` (stereo not given), for which the TGI is over 100 µM with SK-OV-3 ovarian; over 100 µM in the experiment with EKVX NSCLC; over 100 µM in the experiment with OVCAR-8 ovarian; over 100 µM in the experiment with OVCAR-4 ovarian; 80.6 µM with MOLT-4 leukemia; over 93.7 µM in the experiment with SK-MEL-2 melanoma. For the same compound, the TGI in the experiment with A549 NSCLC, with M14 melanoma and in the experiment with NCI-H522 lung was over 100 µM in each case.
On to `N#C/C(=C\c1ccc(C(O)P(=O)(O)O)cc1)C(N)=O` (stereo not given), for which the TGI in the experiment on SK-OV-3 ovarian, in the experiment with EKVX NSCLC, in the experiment with OVCAR-8 ovarian, in the experiment on OVCAR-4 ovarian, with MOLT-4 leukemia and in the experiment with SK-MEL-2 melanoma was over 100 µM throughout. Further, the TGI in the experiment with A549 NSCLC, with M14 melanoma and with NCI-H522 lung was over 100 µM each time.

The values are drawn from PubChem BioAssay (NCI).
